Measured values as given in ChEMBL document CHEMBL2216752, “Carnitine palmitoyltransferase (CPT) modulators: a medicinal chemistry perspective on 35 years of research” (J Med Chem, 2011).
Blank lines part the entries; values can stand above or below the compound they belong to.

Assays:
[1] = Toxicity in po dosed Sprague-Dawley rat assessed as hypoglycemic coma; type: organism-based; details: in vivo
Rattus norvegicus [2] = assay: Reduction in blood glucose in Sprague-Dawley rat at 600 umol/kg, po; type: functional; design: scale not given: the % may be the effect or the level left
Rattus norvegicus [3] = assay: Reduction in blood glucose in po dosed Sprague-Dawley rat; type: functional
Sus scrofa = species on record: Sus scrofa; assay: Increase in glucose metabolic clearance rate in pig using [U14C,3-3H]glucose; type: functional
[4] = Inhibition of human FAO
[5] = Inhibition of rat FAO
[6] = molecular target: T1, Carnitine O-palmitoyltransferase 1, muscle isoform (Homo sapiens, UniProt Q92523); assay: Inhibition of human CPT1B
T1 sequence (Q92523 whole entry): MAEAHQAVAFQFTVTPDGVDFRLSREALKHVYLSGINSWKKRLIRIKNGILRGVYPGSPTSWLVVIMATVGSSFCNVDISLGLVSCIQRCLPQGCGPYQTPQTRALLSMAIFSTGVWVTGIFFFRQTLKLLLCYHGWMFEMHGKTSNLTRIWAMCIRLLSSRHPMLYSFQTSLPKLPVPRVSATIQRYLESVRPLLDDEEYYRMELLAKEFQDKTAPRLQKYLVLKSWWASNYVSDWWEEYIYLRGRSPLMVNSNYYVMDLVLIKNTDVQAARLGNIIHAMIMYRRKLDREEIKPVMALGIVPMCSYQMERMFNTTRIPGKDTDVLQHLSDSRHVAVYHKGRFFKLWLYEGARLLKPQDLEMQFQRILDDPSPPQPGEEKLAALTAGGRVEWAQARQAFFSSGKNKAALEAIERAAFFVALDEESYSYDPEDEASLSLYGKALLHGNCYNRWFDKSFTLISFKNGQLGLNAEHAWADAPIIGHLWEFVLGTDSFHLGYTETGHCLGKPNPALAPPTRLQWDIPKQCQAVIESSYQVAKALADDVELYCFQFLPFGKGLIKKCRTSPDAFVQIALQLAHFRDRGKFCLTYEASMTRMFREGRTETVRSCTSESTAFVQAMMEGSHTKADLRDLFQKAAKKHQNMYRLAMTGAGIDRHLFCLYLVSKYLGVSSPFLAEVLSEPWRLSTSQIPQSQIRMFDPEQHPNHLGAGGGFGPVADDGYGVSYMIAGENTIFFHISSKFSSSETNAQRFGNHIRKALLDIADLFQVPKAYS

[7] = Inhibition of carnitine palmitoyltransferase in rat liver mitochondria assessed as conversion of [14C]palmitic acid to [14C]palmitoylcarnitine by radiometric assay
Mus musculus [8] = assay: Reduction in glucose level in db/db mouse at 30 mg/kgl/day, po for 12 days; type: functional; design: scale not given: the % may be the effect or the level left; details: dose 30 mg/kg
[9] = Critical micelle concentration of compound; type: physicochemical
[10] = molecular target: T2, Carnitine O-palmitoyltransferase 1, liver isoform (Homo sapiens, UniProt P50416); assay: Inhibition of human CPT1A
T2 sequence (P50416 whole entry): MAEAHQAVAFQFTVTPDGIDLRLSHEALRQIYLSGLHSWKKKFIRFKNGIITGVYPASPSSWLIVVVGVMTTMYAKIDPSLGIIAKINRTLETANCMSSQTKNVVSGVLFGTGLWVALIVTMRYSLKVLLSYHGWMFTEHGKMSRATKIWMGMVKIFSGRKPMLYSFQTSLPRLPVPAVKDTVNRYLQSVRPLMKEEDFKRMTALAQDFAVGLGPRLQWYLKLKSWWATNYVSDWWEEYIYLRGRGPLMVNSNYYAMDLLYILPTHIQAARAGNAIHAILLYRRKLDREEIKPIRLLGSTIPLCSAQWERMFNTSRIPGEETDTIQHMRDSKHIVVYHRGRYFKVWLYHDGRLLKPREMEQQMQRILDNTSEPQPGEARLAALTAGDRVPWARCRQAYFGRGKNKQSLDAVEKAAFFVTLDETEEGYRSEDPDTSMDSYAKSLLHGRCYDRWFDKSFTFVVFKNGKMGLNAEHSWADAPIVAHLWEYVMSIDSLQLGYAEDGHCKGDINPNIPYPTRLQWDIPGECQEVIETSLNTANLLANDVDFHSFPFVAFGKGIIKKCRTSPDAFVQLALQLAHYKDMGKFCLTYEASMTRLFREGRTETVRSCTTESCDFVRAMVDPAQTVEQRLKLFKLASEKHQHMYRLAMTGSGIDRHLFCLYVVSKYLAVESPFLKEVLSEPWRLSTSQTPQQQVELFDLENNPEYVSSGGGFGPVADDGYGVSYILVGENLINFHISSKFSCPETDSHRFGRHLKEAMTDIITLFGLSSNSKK

Rattus norvegicus [11] = assay: Inhibition of ketogenesis in 17 hrs fasted po dosed rat; type: functional
[12] = molecular target: T3, Carnitine O-palmitoyltransferase 2, mitochondrial (Homo sapiens, UniProt P23786); assay: Inhibition of human CPT2
T3 sequence (P23786 whole entry): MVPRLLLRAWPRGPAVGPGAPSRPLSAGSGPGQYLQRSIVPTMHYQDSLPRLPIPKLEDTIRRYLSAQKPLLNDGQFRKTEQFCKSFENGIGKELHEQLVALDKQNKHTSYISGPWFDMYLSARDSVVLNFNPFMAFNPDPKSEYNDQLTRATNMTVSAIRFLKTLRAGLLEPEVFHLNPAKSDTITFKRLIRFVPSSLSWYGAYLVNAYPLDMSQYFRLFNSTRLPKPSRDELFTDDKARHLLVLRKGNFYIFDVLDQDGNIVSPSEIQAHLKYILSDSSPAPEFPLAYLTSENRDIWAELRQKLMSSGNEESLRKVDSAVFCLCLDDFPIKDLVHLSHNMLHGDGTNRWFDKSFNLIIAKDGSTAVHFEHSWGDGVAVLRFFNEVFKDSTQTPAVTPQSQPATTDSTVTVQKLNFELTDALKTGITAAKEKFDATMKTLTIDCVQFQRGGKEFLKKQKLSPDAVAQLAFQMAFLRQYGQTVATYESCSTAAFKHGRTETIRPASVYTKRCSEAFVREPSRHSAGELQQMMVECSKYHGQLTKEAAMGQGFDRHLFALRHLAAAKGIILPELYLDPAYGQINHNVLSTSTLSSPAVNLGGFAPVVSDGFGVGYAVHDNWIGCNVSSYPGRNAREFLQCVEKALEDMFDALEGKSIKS

[13] = Inhibition of carnitine palmitoyltransferase in rat heart mitochondria assessed as conversion of [14C]palmitic acid to [14C]palmitoylcarnitine by radiometric assay
Mus musculus [14] = assay: Reduction in food intake in C57BL/6J mouse at 250 pmol/day, icv for 4 days; type: functional; design: scale not given: the % may be the effect or the level left
Mus musculus [15] = assay: Reduction in body weight in C57BL/6J mouse at 250 pmol/day, icv for 4 days; type: functional; design: scale not given: the % may be the effect or the level left
[16] = molecular target: Carnitine O-palmitoyltransferase 1, muscle isoform (Rattus norvegicus) (UniProt Q63704); assay: Maximal inhibition of CPT1B in rat muscle mitochondria; details: Muscle tissue
Sequence of Carnitine O-palmitoyltransferase 1, muscle isoform (Rattus norvegicus) (Q63704 whole entry, canonical isoform): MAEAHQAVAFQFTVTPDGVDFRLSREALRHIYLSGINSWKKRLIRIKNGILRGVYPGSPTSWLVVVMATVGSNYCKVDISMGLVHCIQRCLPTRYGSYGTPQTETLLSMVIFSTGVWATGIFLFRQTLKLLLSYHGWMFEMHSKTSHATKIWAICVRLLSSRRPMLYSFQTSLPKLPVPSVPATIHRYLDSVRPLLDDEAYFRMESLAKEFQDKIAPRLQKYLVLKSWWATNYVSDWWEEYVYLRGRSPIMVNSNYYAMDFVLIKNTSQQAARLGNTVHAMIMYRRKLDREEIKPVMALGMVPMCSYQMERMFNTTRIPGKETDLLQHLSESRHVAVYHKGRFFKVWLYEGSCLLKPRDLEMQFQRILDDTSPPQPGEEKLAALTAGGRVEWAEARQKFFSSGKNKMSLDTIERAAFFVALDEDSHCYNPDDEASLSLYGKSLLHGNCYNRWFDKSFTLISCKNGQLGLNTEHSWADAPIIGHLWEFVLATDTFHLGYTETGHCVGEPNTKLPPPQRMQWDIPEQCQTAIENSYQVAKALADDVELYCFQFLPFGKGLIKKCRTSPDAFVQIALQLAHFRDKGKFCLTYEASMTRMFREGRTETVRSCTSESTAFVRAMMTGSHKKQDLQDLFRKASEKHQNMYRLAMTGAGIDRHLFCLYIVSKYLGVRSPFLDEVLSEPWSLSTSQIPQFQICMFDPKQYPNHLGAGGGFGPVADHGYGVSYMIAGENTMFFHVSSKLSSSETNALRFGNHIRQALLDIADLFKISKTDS

[17] = molecular target: Carnitine O-palmitoyltransferase 1, liver isoform (Rattus norvegicus) (UniProt P32198); assay: Maximal inhibition of CPT1A in rat liver mitochondria
[18] = Competitive inhibition of carnitine palmitoyltransferase using palmitoyl-CoA
Mus musculus [19] = assay: Reduction in serum glucose level db/db mouse at 100 mg/kg/day for 30 days; type: functional; design: scale not given: the % may be the effect or the level left
Rattus norvegicus [20] = assay: Reduction in KB level po dosed 24 hrs fasted rat measured 6 hrs post dose; type: functional
[21] = molecular target: T2, Carnitine O-palmitoyltransferase 1, liver isoform; assay: Inhibition of human CPT1A expressed in Saccharomyces cerevisiae mitochondria assessed as palmitoylcarnitine by HPLC method
Rattus norvegicus [22] = assay: Toxicity in rat assessed as induction of heart muscle enlargement at 200 mg/kg/day for 12 weeks administered through food admix; type: organism-based, Muscle tissue; details: in vivo, 2016 h
[23] = Inhibition of carnitine palmitoyltransferase in fasted rat detergent lysed liver mitochondria by DTNB based spectrophotometric assay
Mus musculus [24] = assay: Reduction in blood glucose level STZ-treated mouse at 1 mmol/kg, po measured 6 to 12 hrs post dose; type: functional; design: scale not given: the % may be the effect or the level left
Mus musculus [25] = assay: Inhibition of [14C]palmitate oxidation to CO2 in mouse at 0.1 mmol/kg, ip; type: functional
[26] = molecular target: T4, Carnitine O-palmitoyltransferase 2, mitochondrial (Rattus norvegicus, UniProt P18886); assay: Inhibition of rat CPT2 using [3H]carnitine by radiometric assay
T4 sequence (P18886 whole entry): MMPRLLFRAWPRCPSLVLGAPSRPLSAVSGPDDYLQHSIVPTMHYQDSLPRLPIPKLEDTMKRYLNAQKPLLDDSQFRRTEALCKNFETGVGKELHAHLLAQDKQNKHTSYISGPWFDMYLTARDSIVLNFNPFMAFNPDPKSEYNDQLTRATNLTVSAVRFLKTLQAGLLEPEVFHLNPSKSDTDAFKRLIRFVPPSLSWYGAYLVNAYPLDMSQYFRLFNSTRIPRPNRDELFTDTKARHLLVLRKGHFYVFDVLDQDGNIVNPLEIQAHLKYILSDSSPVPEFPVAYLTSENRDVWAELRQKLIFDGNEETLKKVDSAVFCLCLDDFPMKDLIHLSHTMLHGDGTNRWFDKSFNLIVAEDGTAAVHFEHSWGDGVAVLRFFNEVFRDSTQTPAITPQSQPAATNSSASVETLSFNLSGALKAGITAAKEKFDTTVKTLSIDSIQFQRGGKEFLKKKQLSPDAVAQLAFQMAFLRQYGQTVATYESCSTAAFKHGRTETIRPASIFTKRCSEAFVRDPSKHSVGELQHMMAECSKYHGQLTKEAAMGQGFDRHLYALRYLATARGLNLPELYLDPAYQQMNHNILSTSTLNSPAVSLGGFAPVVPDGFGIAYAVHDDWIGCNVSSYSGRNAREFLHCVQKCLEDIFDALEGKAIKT

[27] = molecular target: T5, Carnitine O-palmitoyltransferase 1, liver isoform (Rattus norvegicus, UniProt P32198); assay: Inhibition of rat CPT1A using [3H]carnitine by radiometric assay
T5 sequence (P32198 whole entry): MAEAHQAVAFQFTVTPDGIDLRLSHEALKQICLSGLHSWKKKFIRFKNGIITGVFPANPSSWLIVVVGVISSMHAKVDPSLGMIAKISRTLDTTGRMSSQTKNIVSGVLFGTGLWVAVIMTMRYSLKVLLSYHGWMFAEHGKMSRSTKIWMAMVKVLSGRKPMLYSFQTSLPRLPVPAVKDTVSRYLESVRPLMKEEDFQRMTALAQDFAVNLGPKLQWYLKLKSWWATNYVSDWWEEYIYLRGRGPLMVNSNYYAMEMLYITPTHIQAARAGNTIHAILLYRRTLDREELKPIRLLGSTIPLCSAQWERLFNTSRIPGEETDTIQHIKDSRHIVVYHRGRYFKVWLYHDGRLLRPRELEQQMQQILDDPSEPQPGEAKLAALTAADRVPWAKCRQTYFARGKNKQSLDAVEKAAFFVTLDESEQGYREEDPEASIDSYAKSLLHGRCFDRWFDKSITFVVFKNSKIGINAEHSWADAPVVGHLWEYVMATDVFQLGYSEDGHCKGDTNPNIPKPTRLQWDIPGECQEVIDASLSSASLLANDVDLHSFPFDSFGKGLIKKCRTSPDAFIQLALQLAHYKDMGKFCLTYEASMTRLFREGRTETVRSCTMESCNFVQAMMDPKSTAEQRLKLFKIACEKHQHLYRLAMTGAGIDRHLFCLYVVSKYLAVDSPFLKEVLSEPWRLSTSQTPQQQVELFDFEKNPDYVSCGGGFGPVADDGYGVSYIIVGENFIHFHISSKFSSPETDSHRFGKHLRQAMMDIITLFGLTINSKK

- IC50 [4]: 290 nM
- IC50 [5]: 340 nM
Structure (SMILES): CCOC(=O)[C@@]1(CCCCCCOc2ccc(Cl)cc2)CO1 [ETOMOXIR]
- Activity (Sus scrofa): 126%

- IC50 [7]: 700 nM
- Ki [18]: 250 nM
- IC50 [13]: 3400 nM
Structure (SMILES): CCCCCCCCCCCCS(=O)(=O)N[C@H](CC(=O)[O-])C[N+](C)(C)C
- Activity (Mus musculus [19]): 28%
- ED50 (Rattus norvegicus [20]): 20 mg/kg

- IC50 [21]: < 1000 nM
Structure (SMILES): CCCCCc1ccc(S(=O)(=O)NC2(CC(=O)[O-])CC[N+](C)(C)CC2)cc1

- IC50 [21]: < 1000 nM
Structure (SMILES): CCCCCc1ccc(S(=O)(=O)NC2(CC(=O)[O-])CCC[N+](C)(C)C2)cc1 (stereo not drawn)

Continued, compound first:

Structure (SMILES): CCOC(=O)C1(CCCCCc2ccc(Cl)cc2)CO1 (racemic)
- LD50 [1]: 275 mg/kg
- Activity (Rattus norvegicus [2]): 80%
- ED50 (Rattus norvegicus [3]): 6 mg/kg

Structure (SMILES): CCCCCCOc1cccc(OCCCCNC(=O)N[C@H](CC(=O)[O-])C[N+](C)(C)C)c1
- IC50 [6]: 85300 nM
- IC50 [7]: 130 nM
- Activity (Mus musculus [8]): 41%
- CMC [9]: 0.79 mM
- IC50 [10]: 1700 nM
- ED50 (Rattus norvegicus [11]): 3.7 mg/kg
- IC50 [12]: 5400 nM
- IC50 [4]: 730 nM
- IC50 [13]: 5440 nM
- IC50 [5]: 30 nM
- Activity (Mus musculus [14]): 25%
- Activity (Mus musculus [15]): 7%

Structure (SMILES): O=C(O)[C@@]1(CCCCCCOc2ccc([N+](=O)[O-])cc2[N+](=O)[O-])CO1
- Imax [16]: > 60 µM
- Imax [17]: 5 µM

Structure (SMILES): O=C([O-])[C@@]1(CCCCCc2ccc(Cl)cc2)CO1.[Na+] [CLOMIXIR]
- Activity (Rattus norvegicus [22]): 15%

Structure (SMILES): CCCCCCCCCCCCCCCC(=O)NC(CC(=O)[O-])C[N+](C)(C)C (racemic)
- IC50 [23]: 50 nM
- Activity (Mus musculus [24]): 45%
- inhibition in vivo at 100 µmol/kg (Mus musculus [25]): 46%

Structure (SMILES): CCCCCCCCCCCCCCCC1(O)C[N+](C)(C)CC(CC(=O)[O-])O1 (stereo in doubt; (+)-27)
- IC50 [26]: 47500 nM
- IC50 [27]: 38500 nM
